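Method: 48-hour compound exposure of cells in 96-well plates, five concentrations, linear interpolation of endpoints. GI50 is the concentration that inhibits growth by half.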 Active and inactive are the calls of the source. Cut-off read from the data, not from the text of the source: active = GI50 up to about 1.1 µM and inactive = higher.
Experiments:
Experiment in all cases: inhibition of tumour cell growth, NCI panel, 48 h
786-0 = test system: 786-0
A498 = test system: A498
A549 = test system: A549
ACHN = test system: ACHN
CAKI-1 = test system: CAKI-1
CCRF-CEM = test system: CCRF-CEM
COLO 205 = test system: COLO 205
DU-145 = test system: DU-145
EKVX = test system: EKVX
HCC 2998 = test system: HCC 2998
HCT-116 = test system: HCT-116
HCT-15 = test system: HCT-15
HL-60 = test system: HL-60
HOP-62 = test system: HOP-62
HT-29 = test system: HT-29
Hs-578T = test system: Hs-578T
IGROV-1 = test system: IGROV-1
K562 = test system: K562
KM12 = test system: KM12
LOX IMVI = test system: LOX IMVI
M14 = test system: M14
MCF7 = test system: MCF7
MDA-MB-231 = test system: MDA-MB-231
MDA-MB-435 = test system: MDA-MB-435
MOLT-4 = test system: MOLT-4
Malme-3M = test system: Malme-3M
NCI-H226 = test system: NCI-H226
NCI-H23 = test system: NCI-H23
NCI-H460 = test system: NCI-H460
NCI-H522 = test system: NCI-H522
NCI/ADR-RES = test system: NCI/ADR-RES
OVCAR-4 = test system: OVCAR-4
OVCAR-5 = test system: OVCAR-5
OVCAR-8 = test system: OVCAR-8
PC-3 = test system: PC-3
RPMI-8226 = test system: RPMI-8226
RXF 393 = test system: RXF 393
SF-268 = test system: SF-268
SF-295 = test system: SF-295
SK-MEL-28 = test system: SK-MEL-28
SK-MEL-2 = test system: SK-MEL-2
SK-MEL-5 = test system: SK-MEL-5
SK-OV-3 = test system: SK-OV-3
SN12C = test system: SN12C
SNB-19 = test system: SNB-19
SNB-75 = test system: SNB-75
SR = test system: SR
SW-620 = test system: SW-620
T47D = test system: T47D
U-251 = test system: U-251
UACC-257 = test system: UACC-257
UACC-62 = test system: UACC-62
UO-31 = test system: UO-31
BT-549 = test system: BT-549
OVCAR-3 = test system: OVCAR-3
SF-539 = test system: SF-539
TK-10 = test system: TK-10

`O=C(NNc1nc(-c2ccccc2)cs1)C(F)(F)F` was tested, and the GI50 (786-0) was > 100 µM (inactive), the GI50 (A498) was 37.1 µM (inactive) and the GI50 (A549) was 39.2 µM (inactive). The GI50 (ACHN) was 29.2 µM (inactive), the GI50 (CAKI-1) was 45.8 µM (inactive) and the GI50 (CCRF-CEM) was 24.9 µM (inactive). The GI50 (COLO 205) was 35.8 µM (inactive), the GI50 (DU-145) was 53.1 µM (inactive) and the GI50 (EKVX) was 98.9 µM (inactive). The GI50 (HCC 2998) was 95.1 µM (inactive), the GI50 (HCT-116) was 47.3 µM (inactive) and the GI50 (HCT-15) was 57.3 µM. For the same molecule, the GI50 (HL-60) was 33.1 µM (inactive), the GI50 (HOP-62) was 33.2 µM (inactive) and the GI50 (HT-29) was 47.2 µM (inactive). For the same molecule, the GI50 (Hs-578T) was 15.9 µM (inactive), the GI50 (IGROV-1) was 20.2 µM (inactive) and the GI50 (K562) was 25 µM (inactive). The GI50 (KM12) was 30.1 µM (inactive), the GI50 (LOX IMVI) was 57.7 µM (inactive) and the GI50 (M14) was 57.1 µM (inactive). For the same molecule, the GI50 (MCF7) was > 100 µM (inactive), the GI50 (MDA-MB-231) was 68.7 µM (inactive) and the GI50 (MDA-MB-435) was 34 µM (inactive). The GI50 (MOLT-4) was 20 µM (inactive), the GI50 (Malme-3M) was 53.7 µM (inactive) and the GI50 (NCI-H226) was 20.5 µM (inactive). The GI50 (NCI-H23) was 34 µM (inactive), the GI50 (NCI-H460) was 63.5 µM (inactive) and the GI50 (NCI-H522) was 35.7 µM (inactive). For the same molecule, the GI50 (NCI/ADR-RES) was 29.9 µM (inactive), the GI50 (OVCAR-4) was > 100 µM (inactive) and the GI50 (OVCAR-5) was > 100 µM (inactive). The GI50 (OVCAR-8) was 33.4 µM (inactive), the GI50 (PC-3) was 37.8 µM (inactive) and the GI50 (RPMI-8226) was 16.4 µM (inactive). For the same molecule, the GI50 (RXF 393) was 75 µM (inactive), the GI50 (SF-268) was 29.6 µM (inactive) and the GI50 (SF-295) was 29.5 µM (inactive). For the same molecule, the GI50 (SK-MEL-28) was 25.8 µM (inactive), the GI50 (SK-MEL-2) was 36.3 µM (inactive) and the GI50 (SK-MEL-5) was 35.3 µM (inactive). The GI50 (SK-OV-3) was 61.1 µM (inactive), the GI50 (SN12C) was 75.7 µM (inactive) and the GI50 (SNB-19) was 63.8 µM (inactive). The GI50 (SNB-75) was 19 µM (inactive), the GI50 (SR) was 33.4 µM (inactive) and the GI50 (SW-620) was 34.4 µM (inactive). For the same molecule, the GI50 (T47D) was 23.9 µM (inactive), the GI50 (U-251) was 26.3 µM (inactive) and the GI50 (UACC-257) was 44.3 µM (inactive). For the same molecule, the GI50 (UACC-62) was 58.7 µM (inactive) and the GI50 (UO-31) was 3.3 µM (inactive).

In the case of `CC1CNC(NS(=O)(=O)c2cc(C(=O)Nc3ccc(F)cc3)c(Cl)cc2S)=NN1` (stereo unspecified), the GI50 (786-0) is reported as > 100 µM (inactive), the GI50 (A498) is reported as 17.2 µM (inactive) and the GI50 (A549) is reported as 49.4 µM (inactive). For the same molecule, the GI50 (ACHN) was 77.4 µM (inactive), the GI50 (BT-549) was > 100 µM (inactive) and the GI50 (CAKI-1) was > 100 µM (inactive). The GI50 (CCRF-CEM) was 42.5 µM (inactive), the GI50 (COLO 205) was 62.4 µM (inactive) and the GI50 (DU-145) was > 100 µM (inactive). The GI50 (EKVX) was > 100 µM (inactive), the GI50 (HCC 2998) was 40.5 µM (inactive) and the GI50 (HCT-116) was 37.7 µM (inactive). The GI50 (HCT-15) was 37.8 µM, the GI50 (HL-60) was > 100 µM (inactive) and the GI50 (HOP-62) was 75.7 µM (inactive). For the same molecule, the GI50 (HT-29) was 51.4 µM (inactive), the GI50 (IGROV-1) was 71 µM (inactive) and the GI50 (K562) was 32.8 µM (inactive). For the same molecule, the GI50 (KM12) was 49.3 µM (inactive), the GI50 (LOX IMVI) was 54.5 µM (inactive) and the GI50 (M14) was 42.3 µM (inactive). The GI50 (MCF7) was 41 µM (inactive), the GI50 (MDA-MB-231) was 82.2 µM (inactive) and the GI50 (MDA-MB-435) was 35.7 µM (inactive). The GI50 (MOLT-4) was 59.3 µM (inactive), the GI50 (Malme-3M) was 29.1 µM (inactive) and the GI50 (NCI-H226) was 36.4 µM (inactive). For the same molecule, the GI50 (NCI-H23) was 50.4 µM (inactive), the GI50 (NCI-H460) was 78.5 µM (inactive) and the GI50 (NCI-H522) was 33.3 µM (inactive). The GI50 (NCI/ADR-RES) was > 100 µM (inactive), the GI50 (OVCAR-3) was 92.9 µM (inactive) and the GI50 (OVCAR-4) was > 100 µM (inactive). The GI50 (OVCAR-5) was 59.7 µM (inactive), the GI50 (OVCAR-8) was 73.8 µM (inactive) and the GI50 (PC-3) was 30.3 µM (inactive). The GI50 (RPMI-8226) was 34.9 µM (inactive), the GI50 (SF-268) was 50.4 µM (inactive) and the GI50 (SF-295) was 66.5 µM (inactive). The GI50 (SF-539) was 39.5 µM (inactive), the GI50 (SK-MEL-28) was 56.2 µM (inactive) and the GI50 (SK-MEL-2) was 28.3 µM (inactive). The GI50 (SK-MEL-5) was 26.2 µM (inactive), the GI50 (SK-OV-3) was > 100 µM (inactive) and the GI50 (SN12C) was > 100 µM (inactive). For the same molecule, the GI50 (SNB-19) was 87.1 µM (inactive), the GI50 (SR) was 43.5 µM (inactive) and the GI50 (SW-620) was 45.3 µM (inactive). The GI50 (TK-10) was > 100 µM (inactive), the GI50 (U-251) was 48.4 µM (inactive) and the GI50 (UACC-257) was > 100 µM (inactive). The GI50 (UACC-62) was 57.3 µM (inactive) and the GI50 (UO-31) was > 100 µM (inactive).

From ChEMBL document CHEMBL1201862, “PubChem BioAssay data set” (2004)
